# Assay results as given in US9353090B2, “Heterocyclic carboxylic acids as activators of soluble guanylate cyclase” (Boehringer Ingelheim International GmbH, priority 2014, dated 2016).
# Experiments:
# physchem = conditions: kinetic from dmso stock
# Experimental: Solubility is measured by the following method.
# 100 uL, 10 mM DMSO stock solution of each compound is prepared in a 96 well plate format. The experiment is done in single determination at 3 pH values (2.2, 4.5 and 6.8). For each pH and one reference, 40 uL of each compound is needed.
# McIlvaine pH 2.2: To 2.076 g citric acid monohydrate and 0.043 g Na2HPO4×2H2O add 100 ml deionized water
# McIlvaine pH 4.5: To 1.166 g citric acid monohydrate and 1.585 g Na2HPO4×2H2O add 100 ml deionized water
# McIlvaine pH 6.8: To 0.476 g citric acid monohydrate and 2.753 g Na2HPO4×2H2O add 100 ml deionized water
# With a suitable liquid handling device (Multipette® or a liquid handler) 390 uL of each buffer solution and 10 uL of compound is added to each well of a 96 deep well plate. The plates are covered firmly and shaken for 24 h on an over head shaker (at 54 RPM) at room temperature. The DMSO content in the final buffer is 2.5% v/v.
# After 24 h the plates are centrifuged to remove droplets on the lid before opening (for ˜5 min at 2500 RPM).
# The filtration is done under vacuum with Millipore 96 well filter plate. Filtrate is collected in a deep well plate and transferred to a suitable plate for UPLC analysis.
# The reference plate is prepared by adding 10 uL of compound to 390 uL of 50:50 acetonitrile/water in a 96 deep well plate and transferred to a suitable plate for UPLC analysis. Wells are checked visually for precipitation, any presence noted under comments in reported results.
# The samples are measured with UPLC-UV using the chromatographic method described below.
# Waters Empower®2 software is used for generating Sample Sets (according to the plate layout), Sample Set Methods and Instrument Methods.
# One Sample Set comprises the methods for three 96 well plates (one reference plate and two sample plates, and includes one Sample Set Method and one Instrument Method).
# Data Processing and Analysis
# The UV chromatograms collected at 254 nm are integrated and processed.
# It is assumed that the compound is completely dissolved in the reference solution (50:50 acetonitrile/water)
# [1] = molecular target: human soluble guanylate cyclase alpha 1 and beta 1 subunits (sGC) (Homo sapiens (Human), UniProt Q02108+Q02153); assay: sGC cellular activator assay (cGMP, HTRF), in the presence and absence of 50% human serum; type: cell-based; conditions: CHO cells stably expressing human sGC alpha 1/beta 1, preincubated with 40 microM ODQ; cGMP by HTRF; Table 2 does not state whether with or without 50% human serum
# human soluble guanylate cyclase alpha 1 and beta 1 subunits (sGC), sequence (Q02108 whole entry partner): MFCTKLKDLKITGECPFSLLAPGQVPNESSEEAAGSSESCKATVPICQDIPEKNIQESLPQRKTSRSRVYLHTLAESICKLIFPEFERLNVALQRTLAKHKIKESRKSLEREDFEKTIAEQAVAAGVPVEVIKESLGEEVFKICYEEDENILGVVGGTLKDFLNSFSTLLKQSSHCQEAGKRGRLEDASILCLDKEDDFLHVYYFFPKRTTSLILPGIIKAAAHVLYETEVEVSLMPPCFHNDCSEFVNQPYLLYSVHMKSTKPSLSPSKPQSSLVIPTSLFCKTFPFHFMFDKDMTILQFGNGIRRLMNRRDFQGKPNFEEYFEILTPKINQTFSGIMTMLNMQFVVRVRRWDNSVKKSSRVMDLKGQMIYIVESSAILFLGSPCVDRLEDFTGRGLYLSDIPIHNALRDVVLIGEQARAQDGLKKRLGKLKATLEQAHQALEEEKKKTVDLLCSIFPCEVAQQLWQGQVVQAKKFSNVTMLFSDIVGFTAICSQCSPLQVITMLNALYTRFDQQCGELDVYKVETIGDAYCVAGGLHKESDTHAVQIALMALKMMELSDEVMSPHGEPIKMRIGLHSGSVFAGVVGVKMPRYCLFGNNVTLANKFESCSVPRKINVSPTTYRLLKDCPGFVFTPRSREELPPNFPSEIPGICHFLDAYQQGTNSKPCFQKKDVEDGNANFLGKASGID
# human soluble guanylate cyclase alpha 1 and beta 1 subunits (sGC), sequence (Q02153 whole entry): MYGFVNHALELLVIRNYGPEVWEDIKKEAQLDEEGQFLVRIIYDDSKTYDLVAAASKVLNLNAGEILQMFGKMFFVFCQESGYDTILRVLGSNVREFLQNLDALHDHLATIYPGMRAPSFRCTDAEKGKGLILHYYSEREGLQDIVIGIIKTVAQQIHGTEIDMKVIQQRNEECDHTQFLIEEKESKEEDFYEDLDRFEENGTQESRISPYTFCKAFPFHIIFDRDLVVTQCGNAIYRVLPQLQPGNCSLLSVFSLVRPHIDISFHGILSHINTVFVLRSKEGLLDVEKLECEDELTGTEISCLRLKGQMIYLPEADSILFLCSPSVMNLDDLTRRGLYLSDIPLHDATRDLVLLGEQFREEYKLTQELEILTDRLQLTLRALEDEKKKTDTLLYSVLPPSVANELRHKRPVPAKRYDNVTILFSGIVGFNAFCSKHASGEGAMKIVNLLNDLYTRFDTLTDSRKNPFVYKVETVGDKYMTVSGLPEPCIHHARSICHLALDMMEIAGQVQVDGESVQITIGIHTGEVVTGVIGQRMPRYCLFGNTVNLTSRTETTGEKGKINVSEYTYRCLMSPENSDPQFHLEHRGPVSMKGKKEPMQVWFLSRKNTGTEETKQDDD
# Experimental: The sGC cellular activator assay is performed in the presence and absence of 50% human serum (HS) using Chinese hamster ovary cells that have been stably transfected to express the human soluble guanylate cyclase alpha 1 and beta 1 subunits (sGC). Cells are preincubated with 40 microM 1H-[1,2,4]oxadiazolo[4,3-a]quinoxalin-1-one (ODQ), an sGC inhibitor, for one h in buffer containing 0.1% bovine serum albumin and 3-isobutyl-1-methylxanthine (IBMX). Concentration response curves are prepared for test compounds in DMSO. An intermediate dilution of the compounds is performed in either buffer containing IBMX or type AB HS containing IBMX. Diluted compounds are added to cells and they are incubated at room temperature for thirty min. cGMP is measured using a CisBio homogeneous time resolved fluorescence kit and the EC50 is calculated for each compound.
# Representative compounds of the present invention were tested for activity the above assay. Preferred compounds have an EC50 of <1,000 nM in the above assay and more preferred compounds have an EC50<200 nM.
# [2] = Human liver microsome (HLM) metabolic stability assay; type: in vitro ADME; conditions: human liver microsomes
# Experimental: The 5 time point, high-throughput human liver microsome (HLM) metabolic stability assay is designed to determine in vitro compound metabolism. Compounds are incubated with HLMs at a concentration of 1 uM, at 37° C., for a total of 60 min. The percent of compound remaining at 5, 15, 30, and 60 min is used to calculate the t1/2 (min), CLint (mL/min/kg), CLh (mL/min/kg), and % Qh. The assay is based on a 96-well format and can accommodate up to 92 compounds per plate (n=1).
# Using the 96-well multi-channel head, the Biomek FX, equipped with a Peltier heating block/shaker, is programmed to accomplish the following steps: • 1. Pipette 175 uL of 1.15 mg/mL microsomes into each of the 96 conical inserts (Analytical Sales and Products, catalog number 96PL05) that fit into the plate of the Peltier heating block/shaker (the incubation plate) • 2. Add 5 uL of compounds from the assay plate to the microsomes and shake the mixture at 600 rpm at 42.1° C. for 10 min (a setting of 42.1° C. on the Peltier is required for the samples to incubate at 37° C.) • 3. After 10 min, prompt the user to add the NADPH plate to the deck and add 20 uL from the NADPH plate to the incubation plate to start the reaction • 4. Add 215 uL of 100%, cold acetonitrile containing an internal standard(s) to a 0 minute, 5 minute, 15 minute, 30 minute, and 60 minute “quench” plate • 5. At 0 min, 5 min, 15 min, 30 min, and 60 min into the incubation, aspirate 12 uL from the incubation mixture and add it to the quench solution to stop the reaction • 6. Add 185 uL HPLC grade water to each well of the 0, 5, 15, 30 and 60 minute quench plates to dilute compounds to the appropriate concentration for the mass spectrometer
# After all time points are collected, the quench plates are sealed with 96-well pierceable plate mats or heat sealing foil and centrifuged at 3000 rpm for 15 min to pellet the microsomes.
# The plates are analyzed using LC/MS/MS with electron spray ionization (ESI) and the previously determined MRM transitions. The LC method includes the following parameters:
# Using an Excel template in Activitybase, the peak areas corresponding to 5, 15, 30 and 60 min are compared to the peak area at 0 min to calculate the percent of remaining compound using the following equation:
# Percent compound remaining=(AUC at Time t min/AUC at Time 0 min)×100 where t=0, 5, 15, 30 or 60 min.
# Time (min) is plotted against the natural logarithm (Ln) of the percent compound remaining to determine the slope. The slope is used to calculate t1/2 (min) using the equation, t1/2=0.693/slope.
# Clh, Hepatic clearance • Hepatic flow*f(u)*Clint/(hepatic flow+f(u)*Clint)
# Qh, % Hepatic blood flow • (Clh/Hepatic flow)*100
# Preferred compounds have % Qh values of less than 24.
# [3] = pH 2.2, aqueous buffer, Solubility (pH 2.2)
# [4] = pH 4.5, aqueous buffer, Solubility (pH 4.5)
# [5] = pH 6.8, aqueous buffer, Solubility (pH 6.8)
solubility at 24 h (physchem; [3]),solubility at 24 h (physchem; [4]),solubility at 24 h (physchem; [5]),EC50 [1],"Metabolic stability (Qh %), % hepatic blood flow [2]",SMILES
140 µg/mL,100 µg/mL,81 µg/mL,76 nM,<24%,COC[C@H]1N(c2cccc(-c3cccc(C)c3OCc3ccc4c(c3)CCN(C3CCOC3)C4)n2)C[C@@H]2C[C@@]21C(=O)O (mixture of isomers) [Compound 45]
110 µg/mL,14 µg/mL,0.69 µg/mL,10 nM,<24%,Cc1ccc(OCc2cc(C)c3c(c2)CCN(C2CCCOC2)C3)c(-c2csc(N3CC[C@@]4(C(=O)O)C[C@H]4C3)n2)c1 (mixture of isomers) [Compound 121]
120 µg/mL,18 µg/mL,1.6 µg/mL,11 nM,43%,Cc1ccc(OCc2cc(C)c3c(c2)CCN(C2CCOC2)C3)c(-c2csc(N3CC[C@@]4(C(=O)O)C[C@H]4C3)n2)c1 (mixture of isomers) [Compound 122]
110 µg/mL,94 µg/mL,74 µg/mL,27 nM,28%,"COC[C@H]1N(c2cccc(-c3cccc(C)c3OCc3cc(C)c4c(c3)CCN(C3CCOC3)C4)n2)C[C@@H]2C[C@@]21C(=O)O (single isomer, unassigned) [Compound 51]"
,,,17 nM,,CO[C@H]1CN(c2nc(-c3cc(C)ccc3OCc3ccc4c(c3C)CCN(C[C@H]3CCOC3)C4)cs2)CC[C@H]1C(=O)O [Compound 179]
,,,80 nM,42%,Cc1ccc(OCc2ccc3c(c2)CCN(C2CCC(F)(F)CC2)C3)c(-c2csc(N3C[C@H]4CC[C@@H](C3)[C@H]4C(=O)O)n2)c1 [Compound 183]
,,,68 nM,,Cc1ccc(OCc2ccc3c(c2)CCN(C2CCOCC2)C3)c(-c2csc(N3C[C@H]4CC[C@@H](C3)[C@H]4C(=O)O)n2)c1 [Compound 184]
,,,22 nM,52%,Cc1ccc(OCc2ccc3c(c2)CCN(C2CCOCC2)C3=O)c(-c2cccc(N3CC[C@@]4(C(=O)O)C[C@H]4C3)n2)c1 [Compound 193]
,,,23 nM,<24%,CCO[C@H]1CN(c2nccc(-c3cccc(C)c3OCc3cc(C)c4c(c3)CCN(C3CCOCC3)C4)n2)CC[C@H]1C(=O)O [Compound 245]
,,,659 nM,<24%,CCO[C@@H]1CN(c2nccc(-c3cccc(C)c3OCc3cc(C)c4c(c3)CCN(C3CCOCC3)C4)n2)CC[C@@H]1C(=O)O [Compound 247]
108 µg/mL,77.7 µg/mL,77.9 µg/mL,,<24%,CO[C@H]1CN(c2nc(-c3cccc(C)c3OCc3cc(C)c4c(c3)CCN(C3COC3)CC4)cs2)CC[C@H]1C(=O)O [Compound 294]
109 µg/mL,80.5 µg/mL,79.2 µg/mL,,<24%,CO[C@H]1CN(c2nc(-c3cccc(C)c3OCc3cc(C)c4c(c3)CCN(C3CCOCC3)CC4)cs2)CC[C@H]1C(=O)O [Compound 295]
157 µg/mL,154 µg/mL,146 µg/mL,,48%,Cc1csc(CN2CCc3c(ccc(COc4ccccc4-c4cccc(N5CC[C@@]6(C(=O)O)C[C@H]6C5)n4)c3C)C2)n1 [Compound 304]
93 µg/mL,73.7 µg/mL,5.2 µg/mL,5 nM,,COCC(C)N1CCc2c(ccc(COc3ccccc3-c3cccc(N4CC[C@@]5(C(=O)O)C[C@H]5C4)n3)c2C)C1 (stereo partly drawn) [Compound 310]
109 µg/mL,68.3 µg/mL,66.7 µg/mL,10 nM,,CO[C@H]1CN(c2nc(-c3cccc(Cl)c3OCc3ccc4c(c3)CCN(C3CCOCC3)C[C@H]4C)cs2)CC[C@H]1C(=O)O [Compound 333]
,,,80 nM,,Cc1cccc(-c2cccc(N3CC[C@@H](C(=O)O)[C@H]4OCCC[C@@H]43)n2)c1OCc1ccc2c(c1C)CCN(C1CCOCC1)CC2 [Compound 335]
